Test results as given in patent publication EP2752191A1, “Compositions and methods using hdm2 antagonist and mek inhibitor” (SANOFI, priority 2013, dated 2014).

Experiments:
[1] = system: panel of twenty cell lines; test: HDM2-p53 inhibitor / MEK inhibitor combination screen, ATPLite growth inhibition 72 h, Loewe synergy (Example 1); format: cell-based; settings: at an FDR < 5% in some cell lines (FIG. 1)
Method: (§1) The combinations of HDM2-p53 inhibitor and MEK inhibitor were examined in a panel of twenty cell lines (Table 2).
(§2) A 36-point combination dose response matrix over a treatment time of seventy-two hours was used. The method by which this screen was performed is described below.
(§3) Cells were thawed from a liquid nitrogen preserved state. Once cells had been expanded and divided at their expected doubling times, cells were seeded in complete media (Table 3) at 100 cells per well in black 1536 tissue culture treated plates. Assay plates were centrifuged for 2 min at 335 x g, incubated at room temperature for 20 min, and incubated at 37° C for 24 hours before treatment.
ATP levels were used as a measure of cell number (cell growth). At the time of treatment, ATP levels were measured in an untreated set of assay plates (Tzero plates). ATP levels were measured by adding ATPLite (Perkin Elmer) according to manufacturer's instructions. The Tzero plates were read using ultra-sensitive luminescence on Envision Plate Readers. Assay plates receiving treatment were incubated with compound for 72 h at 37° C with 5% CO2. After 72 h, plates were developed for endpoint analysis using ATPLite.
Assay plates were accepted for analysis if they passed the following quality control standards: relative luciferase values were consistent throughout the entire experiment, Z' factor scores were greater than 0.6, untreated/vehicle controls behaved consistently on the plate. The calculation for synergy score is provided below.
Growth Inhibition (GI) was used as a measure of cell viability. As described above, ATP levels were measured at the time of dosing (T0) and after 72 hours (T72). The effect of vehicle alone on cell viability was determined by measuring ATP levels at T0 and 72 hours after treatment of cells with vehicle alone (T72).
GI was calculated by applying the following test and equation: If T < V0 :100*(1-T-V0/V0) [formula] If T ≥ V0 :100*(1-T-V0/V-V0) [formula]
Where T is the signal measure for a test article, V is the vehicle-treated control measure, and V0 is the vehicle control measure at time zero. This formula is derived from the Growth Inhibition calculation used in the National Cancer Institute's NCI-60 high throughput screen, as described on the world wide web at dtp.nci.nih.gov/branches/btb/ivclsp.html. A GI reading of 0% represents no growth inhibition-that is, cells treated with compound had similar levels of ATP as cells treated with vehicle and measured at 72 hours. A GI of 100% represents complete growth inhibition-that is, cells treated with compound had similar levels of ATP as cells treated with vehicle and measured at T0. A GI of 100% where cell numbers have not increased during the treatment period is indicative of a cytostatic effect for compounds reaching a plateau at this effect level. A GI of 200% represents complete death of all cells in the culture well which is indicative of an apoptotic effect.
For each cell line, the dose-response curve was measured with each HDM2-p53 antagonist and each MEK inhibitor as single agents and in pair wise combinations. Using the potency values from the single agent dose-response curves, the compounds were assigned to different groups of similar potency. Multiple doses above and below the EC50 of a given HDM2-p53 antagonist or MEK inhibitor were measured.
In each well of a plate, ATP levels were measured by […] assay as described above. ATP levels are proportional to the number of remaining live cells. […]

[2] = system: 217 kinases; settings: tested at 10 µM; cited from earlier work
[3] = system: 90 non-kinase targets; settings: tested at 10 µM; cited from earlier work
[4] = system: C32 cells; test: ATPLite growth inhibition 72 h, dose matrix (Example 1); format: cell-based; settings: single agents, or Compound (1) with Compound (6) present at 1.1 uM; 72 h (FIG. 2)
Method: as §1, §2, §3
(§4) ATP levels were used as a measure of cell number (cell growth). At the time of treatment, ATP levels were measured in an untreated set of assay plates (Tzero plates). ATP levels were measured by adding ATPLite (Perkin Elmer) according to manufacturer's instructions. The Tzero plates were read using ultra-sensitive luminescence on Envision Plate Readers. […]
(§5) Growth Inhibition (GI) was used as a measure of cell viability. As described above, ATP levels were measured at the time of dosing (T0) and after 72 hours (T72). The effect of vehicle alone on cell viability was determined by measuring ATP levels at T0 and 72 hours after treatment of cells with vehicle alone (T72). […]

[5] = system: MV4-11 cells; test: as above; format: cell-based; settings: single agents, or Compound (1) with Compound (6) present at 3.3 uM; 72 h (FIG. 3)
Method: as §1, §2, §3, §4, §5

SMILES | Loewe synergy with both Compound (1) and Compound (2) [1] | also measured
CNS(=O)(=O)Nc1nccc(Cc2c(C)c3ccc(Oc4ncccn4)cc3oc2=O)c1F [Compound (9), N-[3-fluoro-4-[4-methyl-2-oxo-7-(pyrimidin-2-yloxy)-2H-1-benzopyran-3-ylmethyl]pyridin-2-yl]-N'-methylsulfamide] | statistically significant Loewe synergy | 
O=C(NC[C@H](O)CO)c1ccncc1Nc1ccc(I)cc1F [Compound (4), N-((S)-2,3-dihydroxypropyl)-3-(2-fluoro-4-iodo-phenylamino)isonicotinamide] |  | activity against 217 kinases [2]: no activity; activity against 90 non-kinase targets [3]: no activity
COc1cc2c(Nc3ccc(Oc4ccccc4)cc3)c(C#N)cnc2cc1OCCCN1CCOCC1 [Compound (10), 6-methoxy-7-[3-(4-morpholinyl)propoxy]-4-(4-phenoxyphenylamino)quinoline-3-carbonitrile] | statistically significant Loewe synergy | 
Cn1cnc2c(F)c(Nc3ccc(Br)cc3Cl)c(C(=O)NOCCO)cc21 [Compound (6)] | statistically significant Loewe synergy | effect on C32 cells (growth inhibition) [4]: cytostasis; effect on MV4-11 cells (growth inhibition) [5]: cytostasis
Cc1cnc(Nc2ccc(F)cc2Cl)nc1-c1c[nH]c(C(=O)N[C@H](CO)c2cccc(Cl)c2)c1 [Compound (8), 4-[2-(2-chloro-4-fluorophenylamino)-5-methylpyrimidin-4-yl]-N-[1(S)-(3-chlorophenyl)-2-hydroxyethyl]-1H-pyrrole-2-carboxamide] | statistically significant Loewe synergy | 
O=C(NOCC(O)CO)c1ccc(F)c(F)c1Nc1ccc(I)cc1F (stereo not drawn) [Compound (7), N-(2,3-dihydroxy-propoxy)-3,4-difluoro-2-(2-fluoro-4-iodo-phenylamino)-benzamide] | statistically significant Loewe synergy | 
